Publication PMC12145828 (The Journal of Biological Chemistry, 2025)
Values joined by “and” are separate entries in the source; they are usually repeats but may differ in a detail not shown here. Equal values may be shown once. Read-outs that look alike come from different tables or passages of the source.

Assays:
[1] = molecular target: T1, human DP receptors (Homo sapiens, UniProt Q13258); assay: cAMP formation assay in HEK-DP cells; format: cell-based; conditions: for τ (cAMP formation), operational efficacy / Kd / τ' (cAMP formation): Black/Leff operational model; for τ (cAMP formation), operational efficacy / Kd: partial agonists; for Kd: read-out: KA (cAMP formation), apparent affinity; for Emax: 60 min, normalized to 100 nM PGD2-stimulated cAMP as 100%; for EC50: 60 min treatment; for effect on DP receptors in terms of cAMP accumulation: at least up to 100 nM; for τ' (cAMP formation): full agonists, τ' = KA' x R
T1 construct: expressed in transfected cells
T1 sequence (Q13258 1-359): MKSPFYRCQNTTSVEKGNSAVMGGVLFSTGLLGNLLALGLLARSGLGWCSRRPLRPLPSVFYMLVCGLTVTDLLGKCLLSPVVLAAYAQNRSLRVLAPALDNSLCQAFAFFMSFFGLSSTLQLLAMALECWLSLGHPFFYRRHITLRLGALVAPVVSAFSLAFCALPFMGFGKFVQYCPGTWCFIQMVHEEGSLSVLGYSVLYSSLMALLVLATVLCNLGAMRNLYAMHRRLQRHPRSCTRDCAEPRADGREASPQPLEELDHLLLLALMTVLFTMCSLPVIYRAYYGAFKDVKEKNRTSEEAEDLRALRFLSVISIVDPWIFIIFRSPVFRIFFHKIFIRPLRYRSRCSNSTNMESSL
Protocol: HEK-DP cells were cultured in 6-well plates and, prior to the experiments, the medium was switched from DMEM to Opti-MEM (Thermo Fisher Scientific) containing 250 μg/ml geneticin, 200 μg/ml hygromycin B, and 100 μg/ml gentamicin for 16 h. […] Three hundred microliters of TE buffer (50 mM Tris–HCl, 4 mM EDTA [pH 7.5]) was added, and cells were scraped and transferred to microcentrifuge tubes. Samples were boiled for 8 min, placed on ice, and then centrifuged for 1 min at 16,000g. Between 5 and 25 μl of the supernatants representing approximately 10^4 cells was added to 50 μl of TE buffer containing [^3H]cAMP (PerkinElmer Life Science) and then to 100 μl of 0.06 mg/ml PKA (Sigma–Aldrich; #P5511). The mixture was vortexed and incubated on ice for 120 min. Samples were added to 100 μl of TE buffer containing 2% of bovine serum albumin and 26 mg/ml of powdered activated charcoal (Sigma–Aldrich; #C7606). After vortexing and centrifugation at 16,000g for 5 min, 200 μl of the supernatants were transferred to vials for liquid scintillation.
(§1) The equation "operational model-partial agonist" was performed using the results presented in Figure 2, as reported previously ([20]). The basal level was 0 (Fig. 2A; cAMP) or 1 (Fig. 2B, TCF), and Hill slopes were specified as 1. […] The total responses evoked by the precursor prostanoid and its metabolites were calculated using the formula below ([23]): Response=[A1]/KA1×Tau1+[A2]/KA2×Tau2/[A1]/KA1×(Tau1+1)+[A2]/KA2×(Tau2+1)+1×EffectMax

[2] = molecular target: T1, human DP receptors; assay: TCF/β-catenin-mediated luciferase reporter assay in HEK-DP cells; format: cell-based; conditions: for τ (TCF transcriptional activity), operational efficacy / Kd: Black/Leff operational model, partial agonists; for Kd: read-out: KA (TCF transcriptional activity), apparent affinity; for Emax (fold), β-catenin/TCF-mediated luciferase activity / EC50 / Emax / effect on DP receptor-mediated activation of TCF/β-catenin signaling: HEK-DP cells; for Emax (fold), β-catenin/TCF-mediated luciferase activity / Emax: 16 h; for Emax (fold), β-catenin/TCF-mediated luciferase activity: vehicle-treated control as 1.0; for EC50: 16 h treatment; for Emax: read-out: Emax of TCF/β-catenin activity as % of the PGD2 value; for effect on DP receptor-mediated activation of TCF/β-catenin signaling: up to 100 nM
Protocol: HEK-DP cells were cultured in 6-well plates and, prior to the experiments, medium was switched to Opti-MEM for 16 h with antibiotics, as stated previously. Cells were transiently transfected using HyliMax reagent (Dojindo) with 400 ng/well of either TOP flash or FOP flash reporter plasmids and 2 ng/well of pRL-CMV plasmid (Promega), as described previously ([20]). […] Cells were then lysed and assayed using a dual luciferase reporter assay system (Promega) according to the manufacturer's instructions with TECAN infinite M200 (TECAN). Data were normalized by calculating the ratios of firefly luciferase values to corresponding renilla luciferase scores and corrected for background activity by subtracting FOP flash scores from the corresponding TOP flash values, as described previously ([20]).
as §1

[3] = molecular target: T1, human DP receptors; assay: competitive whole-cell [^3H]PGD2 radioligand binding assay in HEK-DP cells; conditions: for binding to DP receptors / competition with [^3H]PGD2: at least to a concentration of 100 nM (data not shown)
Protocol: The medium of HEK-DP cells cultured in 10-cm dishes was switched from DMEM containing 10% fetal bovine serum to Opti-MEM at 37 °C for 16 h containing antibiotics, as stated previously. Cells were trypsinized and then resuspended at 1.0 x 10^6 cells/sample in 100 μl of ice-cold 10 mM HEPES buffer (pH 7.4) containing 1 mM EDTA and 10 mM MnCl2 (Sigma–Aldrich). […] Samples were incubated for 2 h at 4 °C, and then the assay was terminated by filtration through Whatman GF/C glass filters (Whatman). Filters were then washed three to five times with ice-cold HEPES buffer, and radioactivity was measured by liquid scintillation counting ([20]).

[4] = cited from earlier work
[5] = system: platelets; parameters: method as in PMID 17452035; conditions: collagen-induced platelet aggregation; cited from earlier work

| Structure (SMILES) | τ (cAMP formation), operational efficacy [1] | Kd [1] [nM] | Emax ([1]; HEK-DP cells) [%] | EC50 ([1]; HEK-DP cells) | τ (TCF transcriptional activity), operational efficacy [2] | Kd [2] [nM] | Emax (fold), β-catenin/TCF-mediated luciferase activity [2] | EC50 [2] | Emax [2] [%] | effect on DP receptors in terms of cAMP accumulation ([1]; HEK-DP cells) | effect on DP receptor-mediated activation of TCF/β-catenin signaling [2] | binding to DP receptors / competition with [^3H]PGD2 [3] | τ' (cAMP formation) [1] | IC50 [3] [nM] | further results |
| --- | --- | --- | --- | --- | --- | --- | --- | --- | --- | --- | --- | --- | --- | --- | --- |
| CCCCCC(=O)CC[C@H]1C(=O)C[C@H](O)[C@@H]1C/C=C\CCCC(=O)O [DK-PGD2, 13,14-dihydro-15-keto PGD2] | 0.17 | 15 | ~14 | ~62.4 nM and 62.4 nM | 0.21 | 18.9 | about 1.28 fold | 34.7 nM | ~40 |  |  |  |  |  |  |
| CCCCC/C=C/C=C1/C(=O)C[C@H](O)[C@@H]1C/C=C\CCCC(=O)O [15-d-PGD2, 15-deoxy-Δ^12,14-PGD2] |  |  |  |  |  |  |  |  |  | little effects | little effect | could not bind to DP receptors |  |  |  |
| CCCCC[C@H](O)/C=C/[C@H]1C(=O)C[C@H](O)[C@@H]1C/C=C\CCCC(=O)O [PGD2, Prostaglandin D2] |  |  | 100 | ~0.3 nM and 0.301 nM |  |  |  | ~0.08 nM and 0.0892 nM |  |  |  |  | 11.48 | 2.48 | half-life in blood ([4]; blood): 0.9 min; half-life in plasma ([4]; plasma): 30 min; half-life in blood ([4]; printed as blood): 30 min |
| CCCCC[C@H](O)/C=C/[C@H]1C(=O)C=C[C@@H]1C/C=C\CCCC(=O)O [PGJ2, prostaglandin J2] |  |  | 102 ± 20.2 | ~0.05 nM and 0.0513 nM |  |  |  | ~0.08 nM and 0.0758 nM |  |  |  |  | 86.76 | 5.11 | time-dependent cAMP formation compared with PGD2, with IBMX pretreatment ([1]; HEK-DP cells, 0.3 nM ligand, 0.1 mg/ml IBMX for 25 min): significantly more cAMP from 5 to 60 min compared with PGD2; time-dependent cAMP formation compared with PGD2, without IBMX pretreatment ([1]; HEK-DP cells, 0.3 nM ligand, no IBMX): significantly form more cAMP from 10 to 30 min compared with PGD2; potency of inhibiting platelet aggregation, times lower than that of PGD2 [5]: 13 times |
| CCCCCC(O)CC=C1C(=O)C=CC1CC=CCCCC(=O)O (stereo not shown) [Δ^12-PGJ2] | 4.08 | 117 | ~67 | ~28.9 nM and 28.9 nM | 2.44 | 29.8 | 2.21 fold | 8.96 nM | ~70 |  |  |  |  |  |  |
| CCCCC/C=C\C=C1\C(=O)C=C[C@@H]1C/C=C\CCCC(=O)O [15-d-PGJ2, 15-deoxy-Δ^12,14-PGJ2] |  |  |  |  |  |  |  |  |  | little effects | little effect | could not bind to DP receptors |  |  |  |
